In PubChem BioAssay AID1259427 (Fisher Drug Discovery Resource Center, 2018):
The source made the active and inactive calls.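 How the source made its calls: active means EC50 at or below a set limit, with no effect in the paired counter-screen assay; inactive means the rest.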

Biological target: Aedes aegypti neuropeptide Y-like receptor 7 (NPYLR7)
Assay: agonists of mosquito NPYLR7 receptor, confirmation, cell-based, Aedes aegypti, hit validation, mosquito biting behavior (AID 1259427);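 further: potency of agonists that activate the receptor and raise the calcium signal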
Conditions: HEK293T NPYLR7/Galpha15/GCaMP6s, calcium fluorescence

| Structure (SMILES) | EC50 |
| --- | --- |
| O=C(c1nccc2ccccc12)N1CCN(CC2CCCC2)CC1 | > 20 µM (inactive) |
| CCC(CO)[n+]1c(C)cc(C=C2Sc3ccccc3N2CC)cc1C (stereo unspecified) | inactive |
| O=c1[nH]c(CCl)nc2sc3c(c12)CCN(Cc1ccccc1)C3 | > 20 µM (inactive) |
| COc1cc(C=C(C#N)S(=O)(=O)c2cc(Br)ccc2Br)ccc1O | > 20 µM (inactive) |
| Cc1cc2c(c(-c3ccc4c(cnn4C)c3)c1)OC(CN)C2 (stereo unspecified) | > 20 µM (inactive) |
| CCN(CC)CC[n+]1c(C)cc(C=C2Sc3ccccc3N2C)cc1C | > 20 µM (inactive) |
| CC1C(=O)c2cccc3c(=O)n(-c4ccccc4)c(O)c(c23)C1=O (stereo unspecified) | 5.77 µM |
| O=C(CN1C(=O)SC(=Cc2ccc(N3CCCCCC3)o2)C1=O)N1CCCCCC1 | > 20 µM (inactive) |
| Cc1ccc(C(=O)C=Cc2ccc(N(C)C)cc2)o1 | < 0.039 µM (inactive) |
| COc1cc(OC)c(C2=NOC3(CC(=O)N(c4cccc(Cl)c4)C3=O)C2)cc1OC (stereo unspecified) | > 20 µM (inactive) |
| CCCC1CCC(C(=O)Nc2nnc(SCC)s2)CC1 (stereo unspecified) | > 20 µM (inactive) |
| COCCN=Cc1cc(I)cc(I)c1O | > 20 µM (inactive) |
| Cc1ccc(-c2nc3nc(N)n(C)c(=O)c3[nH]c2=O)cc1 | > 20 µM (inactive) |
| COCCOc1ccc(NC(=O)N(C)C(C)C2(C)CC2)cn1 (stereo unspecified) | > 20 µM (inactive) |
| Cc1ccc(CNC(=O)NC(c2ccc3c(c2)OCCCO3)C(C)C)cc1F (stereo unspecified) | > 20 µM (inactive) |
| CC(C)CN1C(=O)C(=Cc2c(N3CCN(CCO)CC3)nc3ccccn3c2=O)SC1=S | > 20 µM (inactive) |
| O=C(N=Nc1c(O)[nH]c2ccc(Br)cc12)c1ccccc1Cl | > 20 µM (inactive) |
| CC(C)(C)NCC(O)c1ccc(O)c(CO)c1 (stereo unspecified) | > 20 µM (inactive) |
| CCN1CCc2c(sc(NC(=O)C3=COCCO3)c2-c2nc3ccccc3s2)C1 | inactive |
| O=C1c2cccc3c(NCC(O)CCl)ccc(c23)C(=O)N1c1ccccc1 (stereo unspecified) | < 0.039 µM (inactive) |

Other lines, results leading:

| EC50 | Structure (SMILES) |
| --- | --- |
| > 20 µM (inactive) | COc1cccc(-n2c(O)c(C=Nc3cc(OC)ccc3OC)c3ccccc3c2=O)c1 |
| > 20 µM (inactive) | COc1ccc(Cl)cc1NC(=O)/C(C#N)=C/c1coc2ccc(C)cc2c1=O |
| inactive | CNCC(O)c1ccc(O)c(O)c1 (stereo unspecified) |
| inactive | COc1cc(C=C2C=c3c(O)cccc3=C2O)cc(Cl)c1O |
| > 20 µM (inactive) | CNC[C@@H](O)c1ccc(O)c(O)c1 |
| 2.66 µM | NC(=NCCCCCCN=C(N)N=C(N)Nc1ccc(Cl)cc1)N=C(N)Nc1ccc(Cl)cc1 |
| inactive | COc1cc(C=CC(=O)c2ccc3c(c2)OCCO3)cc(Br)c1O |
| > 20 µM (inactive) | Cc1cc(O)c(CN2CCCC2)c2c1C(=O)/C(=C/c1cc3ccccc3o1)O2 |
| < 0.039 µM (inactive) | N#Cc1c(N)nc2c(c1N)C(Sc1ccccc1)c1ccc(O)cc1O2 (stereo unspecified) |
| > 20 µM (inactive) | CCN1CCc2c(sc(NC(=O)COc3ccccc3)c2-c2nc3ccccc3s2)C1 |
| > 20 µM (inactive) | O[C@@H]1CN(Cc2ccncc2Cl)CC[C@H]1c1ccc2c(c1)OCO2 |
